Data reported in US12157740B2, “Triazolopyridines and triazolopyrimidines that lower stress-induced p-tau” (NantNeuro, LLC, priority 2015, dated 2024).

Tests used:
[1] = tested on: J20 mice; assay: J03 pilot study #1 in J20 mice (SQ, 12 days); type: in vivo, mouse
Experimental: (§1) Animal experiments were performed using J20 mice. The J20 mouse is a model of for Alzheimer's disease. This model overexpresses human APP with two mutations linked to familial Alzheimer's disease (the APP KM670/671NL (Swedish) and 5APP V717F (Indiana) mutations).
In pilot study #1, J20 mice housed singly were treated by SQ injection of J03 in PEG/b-MCD at 10 mkd for 12 days. NOR analysis of object memory (N=5/group) was performed. The results are illustrated in FIGS. 10D-10I. […] There was no difference in Aβ1-40 (FIG. 10E), but a decrease in Aβ1-42 (FIG. 10F).

[2] = target: T1, CRFR2 (Homo sapiens, UniProt Q13324); assay: binding to CRFR2 (Ki)
T1 sequence (Q13324 1-411): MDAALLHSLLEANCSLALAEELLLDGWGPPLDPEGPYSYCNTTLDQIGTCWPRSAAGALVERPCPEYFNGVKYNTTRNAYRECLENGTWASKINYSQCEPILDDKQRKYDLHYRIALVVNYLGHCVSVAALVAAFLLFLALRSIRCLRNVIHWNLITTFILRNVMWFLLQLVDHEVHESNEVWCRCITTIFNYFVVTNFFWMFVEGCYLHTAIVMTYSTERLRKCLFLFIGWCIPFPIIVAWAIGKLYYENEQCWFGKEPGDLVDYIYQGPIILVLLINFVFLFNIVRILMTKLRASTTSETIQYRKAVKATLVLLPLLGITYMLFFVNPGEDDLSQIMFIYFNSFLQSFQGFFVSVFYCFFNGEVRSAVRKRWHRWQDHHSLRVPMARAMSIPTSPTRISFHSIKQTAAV

[3] = tested on: tau and phospho-tau in SHSY-5Y cells; assay: CRF-induced tau, p-tau and sAPPα changes in SHSY-5Y cells; type: cell-based; details: for p-tau/tau ratio: FIG. 32C
[4] = tested on: J20 mice; assay: J17 pilot study in J20 mice (oral, 28 days); type: in vivo, mouse; details: oral 28 days
Experimental: as §1
In a J17 pilot study (#1 pilot study) male and female J20 mice were housed singly and treated with J17 at 10 rnkd by oral delivery for 28 days.

[5] = tested on: tau and p-tau in SH-Sy5Y cells; assay: screens for tau and p-tau levels in SH-Sy5Y cells (no CRF stated); type: cell-based; details: screen of FIG. 28B
Experimental: As described below, in vitro studies were performed using SHSY-5Y cells. These cells are a useful neurological model that differentiate into cells with morphological and biochemical characteristics of mature neurons including mature isoforms of tau. […]

[6] = tested on: p-tau; assay: cortisol-induced p-tau increase in vitro (screen of clinical library of CRF-1 inhibitors); type: cell-based
Source text: To identify therapeutic candidates, a clinical library of CRF-1 inhibitors to was screened to determine their effects on cortisol-induced p-tau increases. […] J03 was shown specifically to inhibit stress-induced p-tau increases by cortisol in vitro.

[7] = tested on: tau and p-tau; assay: effect of J03 and J19 on tau and p-tau (FIG. 39E-39F, system not given); details: FIG. 39E
Source text: JI9 decreased tau and both J03 and JI9 decreased p-tau (FIG. 39E). Therefore, while the p-tau/tau ratio looks unchanged for J19 FIG. 39F. This is due to the tau decrease and not due to a lack of effect.

[8] = in vivo pharmacokinetics, plasma and brain levels; design: species or system mouse
[9] = tested on: J20 mice; assay: J03 pilot study #2 in J20 mice (oral, longer duration); type: in vivo, mouse
Experimental: as §1
Based on these promising results, the study was repeated (pilot study #2) with oral delivery and a longer duration.

[10] = CRF-1 at 100 nM for 3 days, compound at 20 nM, FIG. 29A
[11] = oral delivery, longer duration, J20 mice

CCC(COC)n1nnc2c(Nc3ccc(OC)cc3C)nc(C)cc21 (stereo not drawn) [J03, N-(4-Methoxy-2-methylphenyl)-1-[1-(methoxymethyl)propyl]-6-methyl-1H-1,2,3-triazolo[4,5-c]pyridine-4-amine]
NOR analysis of object memory (behavior) ([1]; J20 mice housed singly, SQ 10 mkd in PEG/b-MCD for 12 days, FIG. 10D): slight improvement | P-tau ([1]; SQ 10 mkd, 12 days): significantly lower | Aβ1-40 ([1]; SQ 10 mkd, 12 days, FIG. 10E): no difference | Aβ1-42 ([1]; SQ 10 mkd, 12 days, FIG. 10F): decrease | Aβ1-40/1-42 ratio ([1]; SQ 10 mkd, 12 days, FIG. 10G): significantly increased | SAPP ([1]; SQ 10 mkd, 12 days, FIG. 10H): very slightly increased | sAPP/Aβ1-42 ratio ([1]; SQ 10 mkd, 12 days, FIG. 10I): very slightly increased | ratio (p-tau and tau) ([1]; SQ 10 mkd, 12 days, great individual variation): slightly higher | total tau ([1]; SQ 10 mkd, 12 days, largely due to one mouse, FIG. 11A): decreased | Ki [2]: > 10 µM | p-tau [3, 10]: decreased | total tau [3, 10]: decreased | tau after exposure to CRF ([3]; FIG. 21D): decreased | p-tau after exposure to CRF ([3]; FIG. 21E): decreased | tau increases induced by CRF ([3]; SHSY-5Y cells cultured without serum, CRF at increasing concentrations, FIG. 10A): reduces | phospho-tau (p-tau) increases induced by CRF ([3]; SHSY-5Y cells cultured without serum, CRF at increasing concentrations, FIG. 10B): reduces | sAPPα increase, significance ([3]; at 100 nM CRF, FIG. 32D): reached significance | p-tau/tau ratio ([3]; at 50 and 100 nM CRF): highly significantly decreased | tau ([3]; in the absence of CRF and in the presence of 100 nM CRF, FIG. 32A): significantly decreased | p-tau/tau ratio ([3]; in the absence of CRF): decreased | p-tau ([3]; in the presence and absence of CRF, FIG. 32B): significantly reduced | sAPPα after exposure to CRF ([3]; versus control, FIG. 21C): lower | sAPPα ([3]; with and without CRF, FIG. 32D): trend for sAPPα to be higher | activity ([4]; male and female J20 mice housed singly, not significant, FIG. 24A): lowered | novel object preference, overall ([4]; all mice, FIG. 24B): increased | sAPPα ([4]; both genders, FIG. 25A): increase | ratio sAPPα/sAPPβ ([4]; males, FIG. 25C): slight increase | p-tau [5]: neither J14 nor J03 decreased | total tau [5]: neither J14 nor J03 decreased | stress-induced p-tau increases by cortisol [6]: inhibit | p-tau [7]: decreased | brain levels ([8]; 10 mk subcutaneous (SQ) single injection, J20 mice, FIG. 10C): low | brain levels at the peak after oral delivery, compared with SQ ([8]; oral delivery by feeding (not gavage) at 10 mg/kg): slightly higher | novel location assay / preference [9, 11]: performed well | novel object assay [9, 11]: performed well | sAPPα ([9]; oral, FIG. 13A): increased slightly | sAPPβ ([9]; oral, FIG. 13B): unchanged | sAPPα/sAPPβ ratio ([9]; oral, FIG. 13C): slightly increased | Aβ1-40 ([9]; oral, FIG. 14A): unchanged | Aβ1-42 ([9]; oral, FIG. 14B): unchanged | Aβ1-40/Aβ1-42 ratio ([9]; oral, FIG. 14C): unchanged | p-tau ([9]; oral, decrease reached statistical significance, FIG. 16): decreased
